From patent publication US6362207B1, “Methods of treating viral infections with benzimidazoles” (priority 1995, dated 2002)
Values joined by “and” are separate entries in the source; they are usually repeats but may differ in a detail not shown here. Equal entries are not always repeated. Where two headings read alike, the source gives them in different places.

Key:
rhinovirus = experiment: In vitro rhinovirus model; format: cell-based
SK-MES cells (lung) = experiment: Apoptosis study (TdT assay) and cell growth; format: cell-based, human
Procedure: (§1) Summary of test results: The extent of apoptosis is measured in human tumor cell lines after treatment for 1, 2, 3 and 4 days with carbendazim. At each of these time points, the cells are harvested and assayed using the terminal deoxynucleotidyl transferase (TdT) assays. Both microscopy and flow cytometry were used for the TdT assay.
(§2) In MCF7, HT29, B16 and SK-MES cell lines, there was a concentration dependent effect on cell growth. […] After completion of the studies on the MCF7 and HT29 cell lines, it was evident that the 0.1 μg/ml concentration had little effect on either apoptosis or cell growth. Therefore subsequent assays were with 5 μg/ml instead of 0.1 μg/ml.
The growth of SK-MES cells was slowed done by all concentrations of carbendazim past day 1.

herpes [1] = experiment: In vivo herpes screening test; parameters: species or system mice; details: mouse, in vivo
Procedure: The positive control was acyclovir at 75 mg/kg dose; 60% of the mice survived with a mean death date of 17.2 days.

Rhabdomysarcoma = Rhabdomysarcoma model, tumor weight; format: in vivo; details: 3000 (mg/kg) group, once weekly p.o.
Description: The dose response effect of carbendazim in mice infected with various cancer types was studied in standard screening tests.
The results of these studies conducted to study the dosage response of carbendazim on various cancer types are summarized below. […] Efficacy of carbendazim has been shown in the following cancers:
In the Rhabdomysarcoma model, a childhood cancer, at day 29 carbendazim at doses of 3000, 4000 and 5000 (mg/kg given once weekly, p.o.) is quite effective against this tumor with no toxicity in the 3000 (mg/kg) group. Topotecan (i.p., qd×5) is quite active against this model.

B-16 mouse melanoma = details: for Increased Life Span: B16 melanoma
Procedure: The data in Tables 1, 2 and 3 are reported in T/C which is interpreted using the following scale:
long term survivors for P388 is >30 days, for B16 it is >60 days. The NCI Measure of Success is T/C=125.
This study was performed in black mice injected i.p. with B-16 mouse melanoma which many researchers believe is the most predictive model for efficacy in humans. […] Death is the end point in this model.

[2] = system: Human Tumor Colony Forming Units; experiment: In Vitro Human Tumor Colony Forming Units Test; details: for tumors that had ≧50% survival / tumors tested, total line: all tumor types
[3] = system: HT29 (colon) cancer cells; experiment: Apoptosis study (TdT assay) and cell growth; format: cell-based, human
Procedure: as §1, §2

influenza = experiment: In vivo model for influenza; parameters: species or system mice; details: mouse, in vivo
Procedure: The positive control was amantadine (75 mg/kg) with 100% of the mice surviving for 21 days. 2-(Methoxycarbonylamino)benzimidazole was not active in the same test.

herpes [4] = experiment: In vitro herpes model; format: cell-based
[5] = system: HIV-1 in U1 cells (promonocytic, from U937); experiment: Additional chronic HIV studies, monocytes; format: cell-based; details: concentration not given
Procedure: Chronic HIV-1 infected cells U1 were derived from an acute HIV-1 infection of the promonocytic cell line, U937. The chronic HIV-1 infected cells, ACH-2 were derived from an acute HIV-1 infection of the T cell line, A3.01.
These cells were cultured in medium and the phorbol ester, PMA. PMA causes the cells (both U1 and ACH-2) to be activated and not divide but it also causes the U-1 cells to differentiate. […] Cell viability was measured when these cell lines were treated with the test compound.
Both cell lines constituitively produce a small amount of HIV-1. ACH-2 cell lines tend to produce more HIV-1 than U1 cells as shown by p24 ELISA. When either cell line is cultured in the presence of PMA there is an increase in the quantity of HIV-1 produced as measured by the p24 antigen ELISA.
In addition, the number of […] positive HIV mRNA expressing cells per microscopic field is measured. Comparisons can be made from these numbers since the same number of cells were adhered to the glass slides for each drug concentration 10×10^6 cells/ml).
These cells were treated with test samples. […] The positive control was interferon which suppressed HIV monocytes replication by 80%.

HIV = experiment: microbe, parasite or virus in culture; format: cell-based
[6] = system: MCF7 (breast cancer) cells; experiment: Apoptosis study (TdT assay) and cell growth; format: cell-based, human
Procedure: as §1, §2
However, at 10 μg/ml the increase in apoptosis was evident at days 3 and 4. The increase in apoptosis was low, less than 10% at the high concentration.

Prostate cancer model = experiment: Prostate cancer model, tumor weight; format: in vivo, mice; details: c1-c6 = day 22, 26, 29, 33, 36, 39
[7] = system: B16 murine melanoma cell line; experiment: Apoptosis study (TdT assay) and cell growth; format: cell-based
Procedure: as §1, §2
The concentration effects at days 1-4 were much more evident after normalization of the apoptosis for the growth rates.

For `COC(=O)Nc1nc2ccccc2[nH]1` [carbendazim, 2-methoxycarbonylamino-benzimidazole], the “therapeutic index (TI), ratio of toxic dose to efficacious dose” value (rhinovirus) was 1-3, the cell growth (SK-MES cells (lung); all concentrations, past day 1) was “slowed done” and the percent of apoptosis (SK-MES cells (lung); days 1-4 microscopic TdT assay, days 3 and 4 flow cytometry) was “concentration-response effect”. The activity (herpes [1]) was “no activity”, the toxicity (Rhabdomysarcoma) was “no toxicity” and the T/C (B-16 mouse melanoma; 500 mg/kg twice weekly) was 141. For the same compound, the “weight change (%)” value (B-16 mouse melanoma; 500 mg/kg twice weekly) was −0.64%, the T/C (B-16 mouse melanoma; 1000 mg/kg twice weekly) was 176 and the “weight change (%)” value (B-16 mouse melanoma; 1000 mg/kg twice weekly) was −4.75%. For the same compound, the T/C (B-16 mouse melanoma; 1250 mg/kg twice weekly) was 124, the “weight change (%)” value (B-16 mouse melanoma; 1250 mg/kg twice weekly) was “+1.99%” and the T/C (B-16 mouse melanoma; 2000 mg/kg twice weekly) was 169. The “weight change (%)” value (B-16 mouse melanoma; 2000 mg/kg twice weekly) was −11.63%, the T/C (B-16 mouse melanoma; 2500 mg/kg twice weekly) was 169 and the “weight change (%)” value (B-16 mouse melanoma; 2500 mg/kg twice weekly) was “+3.16%”. For the same compound, the T/C (B-16 mouse melanoma; 5000 mg/kg twice weekly) was 198, the “weight change (%)” value (B-16 mouse melanoma; 5000 mg/kg twice weekly) was −0.64% and the “Increased Life Span” value (B-16 mouse melanoma; 1000 mg/kg) was 131%. For the same compound, the “Increased Life Span” value (B-16 mouse melanoma; 2000 mg/kg) was 163%, the “Increased Life Span” value (B-16 mouse melanoma; 4000 mg/kg) was 187% and the “positive results / tumors tested” value ([2]; 1 Hour Exposure, 0.5 μg/ml) was 0/1. The “positive results / tumors tested” value ([2]; 1 Hour Exposure, 5.0 μg/ml) was 0/1, the “positive results / tumors tested” value ([2]; 1 Hour Exposure, 50.0 μg/ml) was 0/1 and the “tumors that had ≧50% survival / tumors tested” value ([2]; Brain, 2nd '1 Hour Exposure' group, c4-c7 = 0.5, 5.0, 10, 50 μg/ml) was 0/2 and 2/2. For the same compound, the “tumors that had ≧50% survival / tumors tested” value ([2]; Breast, 1 Hour Exposure, c1-c3 = 0.5, 5.0, 50 μg/ml) was 0/1, the “tumors that had ≧50% survival / tumors tested” value ([2]; Breast, 2nd '1 Hour Exposure' group, c4-c7 = 0.5, 5.0, 10, 50 μg/ml) was 0/3 and 0/4 and 0/1 and 2/3 and the “tumors that had ≧50% survival / tumors tested” value ([2]; Cervix, 2nd '1 Hour Exposure' group, c4-c7 = 0.5, 5.0, 10, 50 μg/ml) was 0/1 and 1/1. The “tumors that had ≧50% survival / tumors tested” value ([2]; Colon, 1 Hour Exposure, c1-c3 = 0.5, 5.0, 50 μg/ml) was 0/1, the “tumors that had ≧50% survival / tumors tested” value ([2]; Colon, 2nd '1 Hour Exposure' group, c4-c7 = 0.5, 5.0, 10, 50 μg/ml) was 0/5 and 1/5 and 2/5 and the “positive results / tumors tested” value ([2]; Continuous Exposure, 0.5 μg/ml) was 0/14. For the same compound, the “positive results / tumors tested” value ([2]; Continuous Exposure, 5.0 μg/ml) was 3/14, the “positive results / tumors tested” value ([2]; Continuous Exposure, 50.0 μg/ml) was 5/14 and the “tumors that had ≧50% survival / tumors tested” value ([2]; Head & Neck, 1 Hour Exposure, c1-c3 = 0.5, 5.0, 50 μg/ml) was 0/1. The “tumors that had ≧50% survival / tumors tested” value ([2]; Head & Neck, 2nd '1 Hour Exposure' group, c4-c7 = 0.5, 5.0, 10, 50 μg/ml) was 0/1 and 1/1, the “tumors that had ≧50% survival / tumors tested” value ([2]; Kidney, 1 Hour Exposure, c1-c3 = 0.5, 5.0, 50 μg/ml) was 0/1 and the “tumors that had ≧50% survival / tumors tested” value ([2]; Kidney, 2nd '1 Hour Exposure' group, c4-c7 = 0.5, 5.0, 10, 50 μg/ml) was 0/2 and 1/2. The “tumors that had ≧50% survival / tumors tested” value ([2]; Lung, non-small cell, 1 Hour Exposure, c1-c3 = 0.5, 5.0, 50 μg/ml) was 0/1, the “tumors that had ≧50% survival / tumors tested” value ([2]; Lung, non-small cell, 2nd '1 Hour Exposure' group, c4-c7 = 0.5, 5.0, 10, 50 μg/ml) was 0/6 and 2/6 and 0/1 and 2/5 and the “tumors that had ≧50% survival / tumors tested” value ([2]; Melanoma, 1 Hour Exposure, c1-c3 = 0.5, 5.0, 50 μg/ml) was 0/2 and 1/2. The “tumors that had ≧50% survival / tumors tested” value ([2]; Melanoma, 2nd '1 Hour Exposure' group, c4-c7 = 0.5, 5.0, 10, 50 μg/ml) was 0/3 and 1/3 and 2/3, the “tumors that had ≧50% survival / tumors tested” value ([2]; Mesothelioma, 2nd '1 Hour Exposure' group, c4-c7 = 0.5, 5.0, 10, 50 μg/ml) was 0/1 and the “tumors that had ≧50% survival / tumors tested” value ([2]; Ovary, 1 Hour Exposure, c1-c3 = 0.5, 5.0, 50 μg/ml) was 0/3. For the same compound, the “tumors that had ≧50% survival / tumors tested” value ([2]; Ovary, 2nd '1 Hour Exposure' group, c4-c7 = 0.5, 5.0, 10, 50 μg/ml) was 0/1 and 2/13 and 10/13, the “tumors that had ≧50% survival / tumors tested” value ([2]; Sarcoma, 1 Hour Exposure, c1-c3 = 0.5, 5.0, 50 μg/ml) was 0/1 and 1/1 and the “tumors that had ≧50% survival / tumors tested” value ([2]; Sarcoma, 2nd '1 Hour Exposure' group, c4-c7 = 0.5, 5.0, 10, 50 μg/ml) was 0/1 and 1/1. For the same compound, the “tumors that had ≧50% survival / tumors tested” value ([2]; Stomach, 2nd '1 Hour Exposure' group, c4-c7 = 0.5, 5.0, 10, 50 μg/ml) was 0/1 and 1/1, the “tumors that had ≧50% survival / tumors tested” value ([2]; Unknown Primary, 2nd '1 Hour Exposure' group, c4-c7 = 0.5, 5.0, 10, 50 μg/ml) was 0/1 and the “tumors that had ≧50% survival / tumors tested” value ([2]; Uterus, 2nd '1 Hour Exposure' group, c4-c7 = 0.5, 5.0, 10, 50 μg/ml) was 0/3 and 2/3. The “tumors that had ≧50% survival / tumors tested, total line” value ([2]; 1 Hour Exposure, c1-c3 = 0.5, 5.0, 50 μg/ml) was 0/11 and 2/11, the “tumors that had ≧50% survival / tumors tested, total line” value ([2]; 2nd '1 Hour Exposure' group, c4-c7 = 0.5, 5.0, 10, 50 μg/ml) was 0/4 and 6/44 and 0/3 and 27/41 and the apoptosis ([3]; 10 μg/ml, days 3 and 4) was > 25%. For the same compound, the cell growth ([3]; below 10 μg/ml) was “not largely slowed down”, the activity (influenza) was “not active” and the activity (herpes [4]) was “no activity”. For the same compound, the “suppression of replication in the HIV monocytes” value [5] was 9%, the “therapeutic index (TI), ratio of toxic dose to efficacious dose” value (HIV) was 1.8 and the inhibition at 4 µg/mL (HIV; Human immunodeficiency virus 1, read-out: inhibition of viral replication) was 100%. For the same compound, the increase in apoptosis ([6]; 10 μg/ml (high concentration), days 3 and 4) was “below 10%”, the cell growth ([6]; below 10 μg/ml) was “not significantly affected” and the tumor weight (Prostate cancer model; 4000 mg/kg p.o. twice a week) was 330.5 mg and 347.9 mg and 346.6 mg and 421.1 mg and 464.9 mg and 517 mg. For the same compound, the tumor weight (Prostate cancer model; 6000 mg/kg p.o. twice a week) was 331.5 mg and 371.7 mg and 421.7 mg and 517.2 mg and 529.9 mg and 595.2 mg, the growth rates ([7]; all concentrations) was “affected the growth rates” and the apoptosis ([7]; days 14 by TdT microscopy and days 2-4 by flow cytometry) was “Some concentration dependent effects”.
